Measured values: the NIST ThermoML archive (doi:10.1021/je050010l)

Assays:
[1] = refractive index (Na D-line) (dimensionless); xn = mol fraction of the nth substance listed; details: 100.8 kPa, Liquid, Standard Abbe refractometry
[2] = xn = mol fraction of the nth substance listed; details: 100.8 kPa, Liquid; for viscosity: Capillary tube (Ostwald / Ubbelohde) method

CC(C)CC(C)(C)C [2,2,4-trimethylpentane] + CCO
Details | mass density, 288.15 K [kg/m3] | mass density, 298.15 K [kg/m3] | mass density, 308.15 K [kg/m3] | refractive index, 288.15 K | refractive index, 298.15 K | refractive index, 308.15 K | viscosity, 288.15 K [mPa·s] | viscosity, 298.15 K [mPa·s] | viscosity, 308.15 K [mPa·s]
[1], x2 = 0 | – | – | – | 1.39404 | 1.389 | 1.38395 | – | – | –
[1], x2 = 0.0502 | – | – | – | 1.39319 | 1.3881 | 1.38297 | – | – | –
[1], x2 = 0.1 | – | – | – | 1.39241 | 1.3873 | 1.38217 | – | – | –
[1], x2 = 0.15 | – | – | – | 1.39162 | 1.38651 | 1.38138 | – | – | –
[1], x2 = 0.2 | – | – | – | 1.39081 | 1.38569 | 1.38056 | – | – | –
[1], x2 = 0.25 | – | – | – | 1.38996 | 1.38485 | 1.37972 | – | – | –
[1], x2 = 0.3 | – | – | – | 1.38907 | 1.38397 | 1.37885 | – | – | –
[1], x2 = 0.35 | – | – | – | 1.38811 | 1.38304 | 1.37794 | – | – | –
[1], x2 = 0.4 | – | – | – | 1.38709 | 1.38204 | 1.37696 | – | – | –
[1], x2 = 0.45 | – | – | – | 1.38597 | 1.38099 | 1.37593 | – | – | –
[1], x2 = 0.5 | – | – | – | 1.38479 | 1.37984 | 1.3748 | – | – | –
[1], x2 = 0.55 | – | – | – | 1.3835 | 1.37858 | 1.37358 | – | – | –
[1], x2 = 0.6 | – | – | – | 1.38209 | 1.37722 | 1.37227 | – | – | –
[1], x2 = 0.65 | – | – | – | 1.38055 | 1.37573 | 1.37083 | – | – | –
[1], x2 = 0.7 | – | – | – | 1.37884 | 1.37408 | 1.36922 | – | – | –
[1], x2 = 0.75 | – | – | – | 1.37694 | 1.37225 | 1.36745 | – | – | –
[1], x2 = 0.8 | – | – | – | 1.37484 | 1.3702 | 1.3655 | – | – | –
[1], x2 = 0.85 | – | – | – | 1.37249 | 1.36792 | 1.3633 | – | – | –
[1], x2 = 0.9 | – | – | – | 1.36984 | 1.36536 | 1.36085 | – | – | –
[1], x2 = 0.95 | – | – | – | 1.36684 | 1.36248 | 1.35812 | – | – | –
[2], x2 = 0 | 695.95 | 687.74 | 679.41 | – | – | – | 0.537 | 0.48 | 0.432
[2], x2 = 0.0502 | 697.2 | 688.84 | 680.36 | – | – | – | 0.532 | 0.473 | 0.424
[2], x2 = 0.1 | 698.76 | 690.33 | 681.76 | – | – | – | 0.535 | 0.476 | 0.426
[2], x2 = 0.15 | 700.55 | 692.11 | 683.52 | – | – | – | 0.542 | 0.48 | 0.429
[2], x2 = 0.2 | 702.53 | 694.07 | 685.43 | – | – | – | 0.551 | 0.487 | 0.434
[2], x2 = 0.25 | 704.71 | 696.21 | 687.56 | – | – | – | 0.564 | 0.497 | 0.441
[2], x2 = 0.3 | 707.1 | 698.57 | 689.88 | – | – | – | 0.58 | 0.51 | 0.451
[2], x2 = 0.35 | 709.71 | 701.17 | 692.45 | – | – | – | 0.601 | 0.526 | 0.462
[2], x2 = 0.4 | 712.6 | 704.03 | 695.3 | – | – | – | 0.625 | 0.543 | 0.476
[2], x2 = 0.45 | 715.8 | 707.2 | 698.44 | – | – | – | 0.652 | 0.565 | 0.492
[2], x2 = 0.5 | 719.31 | 710.68 | 701.91 | – | – | – | 0.682 | 0.588 | 0.51
[2], x2 = 0.55 | 723.22 | 714.59 | 705.8 | – | – | – | 0.718 | 0.615 | 0.531
[2], x2 = 0.6 | 727.55 | 718.9 | 710.11 | – | – | – | 0.755 | 0.645 | 0.554
[2], x2 = 0.65 | 732.37 | 723.73 | 714.93 | – | – | – | 0.797 | 0.677 | 0.58
[2], x2 = 0.7 | 737.81 | 729.14 | 720.34 | – | – | – | 0.843 | 0.715 | 0.609
[2], x2 = 0.75 | 743.99 | 735.34 | 726.54 | – | – | – | 0.894 | 0.755 | 0.642
[2], x2 = 0.8 | 751.11 | 742.37 | 733.58 | – | – | – | 0.952 | 0.801 | 0.678
[2], x2 = 0.85 | 759.27 | 750.54 | 741.75 | – | – | – | 1.018 | 0.854 | 0.72
[2], x2 = 0.9 | 768.81 | 760.17 | 751.44 | – | – | – | 1.095 | 0.915 | 0.769
[2], x2 = 0.95 | 780.26 | 771.59 | 762.84 | – | – | – | 1.19 | 0.991 | 0.828
